# pIC50: −log10 of the molar value.
# Biological target: SIK2 (Homo sapiens (Human), UniProt Q9H0K1)
# Assay: SIK2 Enzymatic Assay Version 2 (High ATP)
# Format: biochemical
# Conditions: 3 mM ATP and 200 μM HDAC5tide final, ADP-Glo Max luminescence
# Procedure: All steps were performed at room temperature. Compounds were pre-plated onto an assay plate using an Echo acoustic dispenser (Labcyte, […] or […]) at 80 nL per well. Enzyme prepared in assay buffer at 6 nM (2× final concentration) was added at 4 μL per well using the Multidrop Combi (Thermo Fisher-used for all additions in this assay) to the assay plate, spun for 1 min at 1000 rpm (Allegra 6KR Beckman Coulter centrifuge), and incubated with compound for 30 minutes. […] ADP-Glo Max Reagent (prepared and aliquoted as per manufacturer instructions) was then added at 8 μL per well, spun and incubated for 2 hours. ADP-Glo Max Detection (prepared and aliquoted as per manufacturer instructions) was added at 8 μL per well to the assay plate, which was spun and incubated for 1 hour. The plate was then read on the Pherastar (BMG Labtech) using a luminescence read. Gain was set between 2200-2500.
# SIK2, sequence (Q9H0K1 whole entry, species assumed): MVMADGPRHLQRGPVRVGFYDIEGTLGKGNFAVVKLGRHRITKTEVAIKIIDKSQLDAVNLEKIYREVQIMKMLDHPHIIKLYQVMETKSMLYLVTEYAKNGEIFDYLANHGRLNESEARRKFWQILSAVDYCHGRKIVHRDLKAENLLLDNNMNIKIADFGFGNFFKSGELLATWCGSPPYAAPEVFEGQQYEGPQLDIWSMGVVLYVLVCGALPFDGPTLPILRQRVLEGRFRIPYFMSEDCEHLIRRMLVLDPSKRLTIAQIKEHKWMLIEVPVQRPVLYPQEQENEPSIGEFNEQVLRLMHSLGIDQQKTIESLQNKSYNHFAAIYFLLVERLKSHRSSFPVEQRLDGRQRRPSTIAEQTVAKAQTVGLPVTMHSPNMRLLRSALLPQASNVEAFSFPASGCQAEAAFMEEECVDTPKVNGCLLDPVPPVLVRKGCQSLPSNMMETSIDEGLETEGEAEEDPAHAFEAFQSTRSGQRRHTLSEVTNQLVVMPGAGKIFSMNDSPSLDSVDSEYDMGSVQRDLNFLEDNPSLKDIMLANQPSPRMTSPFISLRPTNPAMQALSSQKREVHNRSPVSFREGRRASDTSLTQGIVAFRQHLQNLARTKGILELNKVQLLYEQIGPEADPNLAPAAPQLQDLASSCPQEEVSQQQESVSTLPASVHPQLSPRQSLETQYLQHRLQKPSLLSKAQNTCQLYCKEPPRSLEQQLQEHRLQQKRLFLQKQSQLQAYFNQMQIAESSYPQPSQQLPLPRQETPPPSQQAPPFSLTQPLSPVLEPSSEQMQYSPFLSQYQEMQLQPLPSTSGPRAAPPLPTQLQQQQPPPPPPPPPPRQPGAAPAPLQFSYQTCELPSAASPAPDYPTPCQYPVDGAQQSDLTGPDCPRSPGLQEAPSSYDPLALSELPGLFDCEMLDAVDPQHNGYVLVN
row,SMILES,pIC50
1,"Cc1onc(OCC2(c3ccccc3)CNC2)c1-c1ccn2nc(NC(=O)C3CC3)cc2c1 [Example 199, N-[5-[5-methyl-3-[(3-phenylazetidin-3-yl)methoxy]isoxazol-4-yl]pyrazolo[1,5-a]pyridin-2-yl]cyclopropanecarboxamide]",7.85
2,"CN1CC(COc2cnn(C)c2-c2ccn3nc(NC(=O)C4CC4)cc3c2)(c2ccccc2)C1 [Example 410, N-[5-[2-methyl-4-[(1-methyl-3-phenyl-azetidin-3-yl)methoxy]pyrazol-3-yl]pyrazolo[1,5-a]pyridin-2-yl]cyclopropanecarboxamide]",7.14
3,"CN1CC[C@@H]1COc1cnn(C)c1-c1ccn2nc(Nc3ccc4c(n3)CCOC4)cc2c1 [Example 114, N-[5-[2-methyl-4-[[(2R)-1-methylazetidin-2-yl]methoxy]pyrazol-3-yl]pyrazolo[1,5-a]pyridin-2-yl]-7,8-dihydro-5H-pyrano[4,3-b]pyridin-2-amine]",8.96
4,"Cc1cc(Nc2cc3cc(-c4c(OC[C@@H](O)C56CC(C5)C6)cnn4C)ccn3n2)nc(C)n1 (stereo in doubt) [Example 306, (*S)-1-(3-bicyclo[1.1.1]pentanyl)-2-[5-[2-[(2,6-dimethylpyrimidin-4-yl)amino]pyrazolo[1,5-a]pyridin-5-yl]-1-methyl-pyrazol-4-yl]oxy-ethanol]",7.44
5,"Cc1onc(OC[C@H](c2ccccn2)N(C)C)c1-c1ccn2nc(NC(=O)C3CC3)cc2c1 [Example 325, N-[5-[3-[(2S)-2-(dimethylamino)-2-(2-pyridyl)ethoxy]-5-methyl-isoxazol-4-yl]pyrazolo[1,5-a]pyridin-2-yl]cyclopropanecarboxamide]",7.20
6,"CN1C[C@@H](F)[C@H](OCc2cnn(C)c2-c2ccn3nc(NC(=O)C4CC4)cc3c2)C1 [Example 467, N-[5-[4-[[(3R,4R)-4-fluoro-1-methyl-pyrrolidin-3-yl]oxymethyl]-2-methyl-pyrazol-3-yl]pyrazolo[1,5-a]pyridin-2-yl]cyclopropanecarboxamide]",6.95
7,"Cn1ncc(OC[C@H]2CCN2CC(C)(C)C#N)c1-c1ccn2nc(NC(=O)C3CC3)cc2c1 [Example 255, N-[5-[4-[[(2R)-1-(2-cyano-2-methyl-propyl)azetidin-2-yl]methoxy]-2-methyl-pyrazol-3-yl]pyrazolo[1,5-a]pyridin-2-yl]cyclopropanecarboxamide]",7.29
8,"CO[C@H]1CNC[C@H]1Oc1noc(C)c1-c1ccn2nc(NC(=O)C3CC3)cc2c1 (single isomer, unassigned) [Example 385, (3*R,4*S)—N-[5-[3-(4-methoxypyrrolidin-3-yl)oxy-5-methyl-isoxazol-4-yl]pyrazolo[1,5-a]pyridin-2-yl]cyclopropanecarboxamide]",6.91
9,"CCN1CC2(CC2)[C@H]1COc1cnn(C)c1-c1ccn2nc(NC(=O)C3CC3)cc2c1 (single isomer, unassigned) [Example 67, (*S)—N-[5-[4-[(5-ethyl-5-azaspiro[2.3]hexan-6-yl)methoxy]-2-methyl-pyrazol-3-yl]pyrazolo[1,5-a]pyridin-2-yl]cyclopropanecarboxamide]",7.28
10,"C[C@H]1CN(C)[C@@H]1COc1cnn(C)c1-c1ccn2nc(NC(=O)C3CC3)cc2c1 [Example 12, N-[5-[4-[[(2S,3S)-1,3-dimethylazetidin-2-yl]methoxy]-2-methyl-pyrazol-3-yl]pyrazolo[1,5-a]pyridin-2-yl]cyclopropanecarboxamide]",6.93
11,"Cn1ncc(OC[C@H]2CCN2C[C@@H]2CCCO2)c1-c1ccn2nc(NC(=O)C3CC3)cc2c1 (relative stereo) [Example 353, (*S)—N-[5-[2-methyl-4-[[1-(tetrahydrofuran-2-ylmethyl)azetidin-2-yl]methoxy]pyrazol-3-yl]pyrazolo[1,5-a]pyridin-2-yl]cyclopropanecarboxamide]",7.17
12,"CN1CC[C@@H]1COc1cnn(C)c1-c1ccn2nc(NC(=O)[C@@H]3C[C@@H]3c3ccccc3)cc2c1 (single isomer, unassigned) [Example 474, (1*R,2*S)—N-(5-(1-methyl-4-(((R)-1-methylazetidin-2-yl)methoxy)-1H-pyrazol-5-yl)pyrazolo[1,5-a]pyridin-2-yl)-2-phenylcyclopropane-1-carboxamide]",6.37

# More lines, now with the values ahead:
row,pIC50,SMILES
1,7.83,"Cc1cnc(Nc2cc3cc(-c4c(CO[C@@H]5CN(C)C[C@H]5C)cnn4C)ccn3n2)cn1 (stereo in doubt) [Example 377, CIS—*R, *R-5-[4-[(1,4-dimethylpyrrolidin-3-yl)oxymethyl]-2-methyl-pyrazol-3-yl]-N-(5-methylpyrazin-2-yl)pyrazolo[1,5-a]pyridin-2-amine]"
2,8.39,"CNC(=O)c1ccc(Nc2cc3cc(-c4c(OC[C@H]5CCN5C)cnn4C)ccn3n2)nc1 [Example 126, N-methyl-6-[[5-[2-methyl-4-[[(2R)-1-methylazetidin-2-yl]methoxy]pyrazol-3-yl]pyrazolo[1,5-a]pyridin-2-yl]amino]pyridine-3-carboxamide]"
3,6.86,"CN1CC[C@H](Oc2cnn(C)c2-c2ccn3nc(Nc4ccncn4)cc3c2)C1 [Example 455, 5-[2-methyl-4-[(3S)-1-methylpyrrolidin-3-yl]oxy-pyrazol-3-yl]-N-pyrimidin-4-yl-pyrazolo[1,5-a]pyridin-2-amine]"
4,7.95,"Cc1cc(Nc2cc3cc(-c4c(OC[C@H]5CCCN5C)cnn4C)ccn3n2)nc(C)n1 [Example 282, N-(2,6-dimethylpyrimidin-4-yl)-5-[2-methyl-4-[[(2R)-1-methylpyrrolidin-2-yl]methoxy]pyrazol-3-yl]pyrazolo[1,5-a]pyridin-2-amine]"
5,7.34,"Cc1cc(Nc2cc3cc(-c4c(OC[C@](C)(O)C5CC5)cnn4C)ccn3n2)nc(C)n1 (single isomer, unassigned) [Example 304, (*S)-2-cyclopropyl-1-[5-[2-[(2,6-dimethylpyrimidin-4-yl)amino]pyrazolo[1,5-a]pyridin-5-yl]-1-methyl-pyrazol-4-yl]oxy-propan-2-ol]"
6,7.77,"Cc1cc(Nc2cc3cc(-c4c(OCC56CC(CN5)C6)cnn4C)ccn3n2)nc(C)n1 [Example 288, 5-[4-(3-azabicyclo[2.1.1]hexan-4-ylmethoxy)-2-methyl-pyrazol-3-yl]-N-(2,6-dimethylpyrimidin-4-yl)pyrazolo[1,5-a]pyridin-2-amine]"
7,8.21,"Cc1cnc(Nc2cc3cc(-c4c(OC[C@H]5CCN5C[C@H](C)O)cnn4C)ccn3n2)cn1 [Example 296, (2S)-1-[(2R)-2-[[1-methyl-5-[2-[(5-methylpyrazin-2-yl)amino]pyrazolo[1,5-a]pyridin-5-yl]pyrazol-4-yl]oxymethyl]azetidin-1-yl]propan-2-ol]"
8,8.89,"Cc1cc(Nc2cc3cc(-c4c(CO[C@@H]5CN(C)C[C@H]5C)cnn4C)ccn3n2)nc(C)n1 (relative stereo) [Example 365, Trans-*R, *S—N-(2,6-dimethylpyrimidin-4-yl)-5-[4-[(1,4-dimethylpyrrolidin-3-yl)oxymethyl]-2-methyl-pyrazol-3-yl]pyrazolo[1,5-a]pyridin-2-amine]"
9,> 9.07,"CCc1cc(Nc2cc3cc(-c4c(OC[C@H]5CCN5CC)cnn4C)ccn3n2)nc(C)n1 [Example 172, 5-[4-[[(2R)-1-ethylazetidin-2-yl]methoxy]-2-methyl-pyrazol-3-yl]-N-(6-ethyl-2-methyl-pyrimidin-4-yl)pyrazolo[1,5-a]pyridin-2-amine]"
10,8.80,"Cc1cc(Nc2cc3cc(-c4c(CO[C@@H]5CN(C)C[C@H]5C)cnn4C)ccn3n2)nc(C)n1 (relative stereo) [Example 366, Trans-*S, *R—N-(2,6-dimethylpyrimidin-4-yl)-5-[4-[(1,4-dimethylpyrrolidin-3-yl)oxymethyl]-2-methyl-pyrazol-3-yl]pyrazolo[1,5-a]pyridin-2-amine]"
11,8.37,"Cc1cnc(Nc2cc3cc(-c4c(COC5CN(C)CC5C)cnn4C)ccn3n2)cn1 (racemic) [Example 376, Rac-CIS-5-[4-[(1,4-dimethylpyrrolidin-3-yl)oxymethyl]-2-methyl-pyrazol-3-yl]-N-(5-methylpyrazin-2-yl)pyrazolo[1,5-a]pyridin-2-amine]"
12,7.77,"CCc1cc(Nc2cc3cc(-c4c(OC[C@@H]5CCN5C)cnn4C)ccn3n2)nc(C)n1 [Example 137, N-(6-ethyl-2-methyl-pyrimidin-4-yl)-5-[2-methyl-4-[[(2S)-1-methylazetidin-2-yl]methoxy]pyrazol-3-yl]pyrazolo[1,5-a]pyridin-2-amine]"
13,7.76,"Cc1cncc(Nc2cc3cc(-c4c(CO[C@H]5CN(C)C[C@@H]5C)cnn4C)ccn3n2)n1 (stereo in doubt) [Example 374, Trans-*S, *R-5-[4-[(1,4-dimethylpyrrolidin-3-yl)oxymethyl]-2-methyl-pyrazol-3-yl]-N-(6-methylpyrazin-2-yl)pyrazolo[1,5-a]pyridin-2-amine]"
14,8.51,"CCN1CC[C@@H]1COc1cnn(C)c1-c1ccc2nc(Nc3cc(C)nc(C)n3)cn2c1 [Example 476, N-(2,6-dimethylpyrimidin-4-yl)-6-[4-[[(2R)-1-ethylazetidin-2-yl]methoxy]-2-methyl-pyrazol-3-yl]imidazo[1,2-a]pyridin-2-amine]"
15,8.70,"CN1CC[C@@H]1COc1cnn(C)c1-c1ccn2nc(Nc3ccc4nccn4n3)cc2c1 [Example 149, N-[5-[2-methyl-4-[[(2R)-1-methylazetidin-2-yl]methoxy]pyrazol-3-yl]pyrazolo[1,5-a]pyridin-2-yl]imidazo[1,2-b]pyridazin-6-amine]"
